# Reference: patent publication US12624128B2, “Low molecular weight chondroitin sulfate, composition, preparation method and use thereof” (NANJING HANXIN PHARMACEUTICAL TECHNOLOGY CO., LTD., priority 2019, dated 2026)
# Columns and labels:
# osteoporosis rats [1] = experiment: Bone phosphorus level, osteoporosis rats (Example 24); assay type: in vivo; details: male rats; CSO low-dose (3.8 mg/kg)+calcium acetate 158 mg/kg; compared with model group, P<0.05, P<0.01
# Method: (§1) Ninety female SD rats weighing 200-220 g were used. The rats adapted to the environment for 3 d. Fasting but freely taking water for 24 h before surgery. Rats were injected intraperitoneally with 3% chloral hydrate and anesthetised. Ten […] were used as the sham-operated group with longitudinal incisions on the skin and muscle from both sides of the lumbar and dorsal spine without removing the ovaries. For the other animals, longitudinal incisions were made from both sides of the lumbar and dorsal spine to cut the skin and muscle, and both ovaries were removed, and the wounds were sutured. All animals were intramuscular injected with penicillin for 3 consecutive days after operation. (Male rats were operated with the same method to remove testicles).
# (§2) On the second day after surgery, ovariectomized rats were randomly divided into 8 groups with […] in each group:
# (§3) On the second day after surgery, rats were given by intragastric administration with an administration volume of 0.2 mL/100 g. The sham-operated group and model group were given in the same volume of normal saline. […]
# (§4) The rats were sacrificed, and the femur on both sides was separated. The right femur was taken and measured for the following indexes: bone weight coefficient (g/100 g body weight), bone density, ash level, bone calcium or bone phosphorus, bone hydroxyproline, HE pathology. […]
# osteoporosis rats [2] = experiment: Femoral ash level, osteoporosis rats (Example 24); assay type: in vivo; details: male rats; CSO high, medium and low dose (15, 7.5, 3.8 mg/kg)+calcium acetate 158 mg/kg; compared with model group, P<0.01, P<0.05
# Method: as §1, §2, §3, §4
smiles,measurement,setting,value
"CC(=O)[O-].CC(=O)[O-].[Ca+2] [Ca, Calcium acetate]",bone phosphorus level,osteoporosis rats [1],significantly increased
same,level of femoral ashes,osteoporosis rats [2],significantly increased
